Experiments:
Assay in all cases: relative viability (nuclei count vs DMSO), 5 days (fraction); higher = more cells survive
Doramapimod + Lapatinib = compound: Cc1ccc(-n2nc(C(C)(C)C)cc2NC(=O)Nc2ccc(OCCN3CCOCC3)c3ccccc23)cc1 [Doramapimod] + CS(=O)(=O)CCNCc1ccc(-c2ccc3ncnc(Nc4ccc(OCc5cccc(F)c5)c(Cl)c4)c3c2)o1 [Lapatinib] (partner 2 µM)
Procedure, shortened: (§1)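 Each reported value is a median over duplicate plates. It expresses relative viability: treated-well nuclei count divided by vehicle-well nuclei count. Lung cancer cell lines in 1536-well plates were dosed by pin tool a day after seeding, alone with one drug or with a fixed anchor-drug dose plus five library-drug doses (not always all listed) in √10 steps, and nuclei were counted after 5 days.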

RAF265 + Navitoclax = compound: Cn1c(Nc2ccc(C(F)(F)F)cc2)nc2cc(Oc3ccnc(-c4ncc(C(F)(F)F)[nH]4)c3)ccc21 [RAF265] + CC1(C)CCC(c2ccc(Cl)cc2)=C(CN2CCN(c3ccc(C(=O)NS(=O)(=O)c4ccc(N[C@H](CCN5CCOCC5)CSc5ccccc5)c(S(=O)(=O)C(F)(F)F)c4)cc3)CC2)C1 [Navitoclax] (partner 0.5 µM)
Procedure, shortened: as §1

IPA-3 + Pictilisib = compound: C1=CC=C2C(=C1)C=CC(=C2SSC3=C(C=CC4=CC=CC=C43)O)O [IPA-3] + CS(=O)(=O)N1CCN(Cc2cc3nc(-c4cccc5[nH]ncc45)nc(N4CCOCC4)c3s2)CC1 [Pictilisib] (partner 1 µM)
Procedure, shortened: as §1

RAF265 + Linsitinib = compound: Cn1c(Nc2ccc(C(F)(F)F)cc2)nc2cc(Oc3ccnc(-c4ncc(C(F)(F)F)[nH]4)c3)ccc21 [RAF265] + C[C@]1(O)C[C@@H](c2nc(-c3ccc4ccc(-c5ccccc5)nc4c3)c3c(N)nccn32)C1 [Linsitinib] (partner 1 µM)
Procedure, shortened: as §1

Row | Cell Line | relative viability (Doramapimod + Lapatinib; first compound 0.02 µM) | relative viability (Doramapimod + Lapatinib; first compound 0.06325 µM) | relative viability (Doramapimod + Lapatinib; first compound 0.2 µM) | relative viability (Doramapimod + Lapatinib; first compound 0.6325 µM) | relative viability (Doramapimod + Lapatinib; first compound 2 µM) | relative viability (RAF265 + Navitoclax; first compound 0.01 µM) | relative viability (RAF265 + Navitoclax; first compound 0.03162 µM) | relative viability (RAF265 + Navitoclax; first compound 0.1 µM) | relative viability (RAF265 + Navitoclax; first compound 0.3162 µM) | relative viability (RAF265 + Navitoclax; first compound 1 µM) | relative viability (IPA-3 + Pictilisib; first compound 0.2 µM) | relative viability (IPA-3 + Pictilisib; first compound 0.6325 µM) | relative viability (IPA-3 + Pictilisib; first compound 2 µM) | relative viability (IPA-3 + Pictilisib; first compound 6.325 µM) | relative viability (IPA-3 + Pictilisib; first compound 20 µM) | relative viability (RAF265 + Linsitinib; first compound 0.01 µM) | relative viability (RAF265 + Linsitinib; first compound 0.03162 µM) | relative viability (RAF265 + Linsitinib; first compound 0.1 µM) | relative viability (RAF265 + Linsitinib; first compound 0.3162 µM) | relative viability (RAF265 + Linsitinib; first compound 1 µM)
1 | NCI-H1944 | 0.761 | 0.823 | 0.722 | 0.963 | 0.585 | 1.11 | 1.06 | 1.15 | 0.798 | 0.86 | 0.351 | 0.344 | 0.371 | 0.38 | 0.345 | 1.25 | 1.37 | 1.08 | 0.64 | 0.716
2 | NCI-H1734 | 1.27 | 0.963 | 0.932 | 1.04 | 0.928 | 0.886 | 0.656 | 0.825 | 0.628 | 0.348 | 0.469 | 0.473 | 0.441 | 0.494 | 0.435 | 1.02 | 0.883 | 0.717 | 0.676 | 0.421
3 | A-427 | 1.03 | 1.17 | 1.09 |  | 1.04 | 0.929 | 0.678 | 0.96 | 0.579 | 0.272 | 0.682 | 0.683 | 0.784 | 0.604 | 0.784 | 1.15 | 1.07 | 1.16 | 0.676 | 0.499
4 | RERF-LC-KJ | 0.983 | 0.946 | 0.879 | 0.908 | 0.814 | 1.08 | 0.95 | 0.851 | 0.747 | 0.841 | 0.626 | 0.501 | 0.537 | 0.38 | 0.486 | 0.915 | 0.835 | 0.95 | 0.859 | 0.636
5 | NCI-H727 | 0.969 | 0.731 | 0.815 | 0.778 | 0.933 | 0.531 | 0.539 | 0.512 | 0.363 | 0.229 | 0.583 | 0.229 | 0.456 | 0.513 | 0.402 | 0.38 | 0.26 | 0.254 | 0.327 | 0.132
6 | LCLC-97TM1 | 0.859 | 0.792 | 1 | 1.05 | 0.853 | 0.512 | 0.356 | 0.461 | 0.191 | 0.135 | 0.195 | 0.165 | 0.198 | 0.216 | 0.175 | 0.169 | 0.158 | 0.149 | 0.136 | 0.11
7 | BEN | 0.728 | 0.687 | 0.746 | 0.475 | 0.717 | 0.0592 | 0.0731 | 0.0721 | 0.0801 | 0.0649 | 0.6 | 0.596 | 0.66 | 0.697 | 0.601 | 0.897 | 1.01 | 1.12 | 0.939 | 0.791
8 | NCI-H2023 | 0.79 | 0.636 | 0.78 | 0.105 | 0.807 | 1.09 | 1.02 | 1.06 | 1.09 | 0.908 | 0.275 | 0.243 | 0.248 | 0.301 | 0.258 | 0.588 | 0.743 | 0.776 | 0.644 | 0.424
9 | LC-2-ad | 0.87 | 1.03 | 1.1 | 1.05 | 0.643 | 0.527 | 0.283 | 0.311 | 0.162 | 0.115 | 0.461 | 0.627 | 0.502 | 0.443 | 0.43 | 0.807 | 0.762 | 0.727 | 0.316 | 0.293
10 | NCI-H647 | 0.789 | 1.09 | 1.21 | 1.06 | 0.826 | 1.2 | 0.954 | 0.977 | 0.895 | 0.458 | 0.44 | 0.351 | 0.363 | 0.434 | 0.471 | 0.801 | 0.991 | 1.01 | 0.574 | 0.519
11 | NCI-H1755 | 0.6 | 1.04 | 1.05 | 1.08 | 1.03 | 0.999 | 0.879 | 0.764 | 0.671 | 0.356 | 0.455 | 0.358 | 0.397 | 0.345 | 0.536 | 0.959 | 1.06 | 0.988 | 0.825 | 0.579
12 | EPLC-272H | 0.942 | 0.983 | 0.945 | 0.979 | 0.745 | 1.03 | 0.98 | 0.851 | 0.503 | 0.383 | 0.309 | 0.338 | 0.273 | 0.343 | 0.401 | 1.08 | 1.02 | 1.03 | 0.608 | 0.431
13 | NCI-H1437 | 0.805 | 0.905 | 0.837 | 0.898 | 0.723 | 1.1 | 1.06 | 1.01 | 1.18 | 1.1 | 0.562 | 0.486 | 0.458 | 0.61 | 0.616 | 1.09 | 1.01 | 1.08 | 1 | 0.945
14 | EKVX | 0.194 | 0.189 | 0.202 | 0.251 | 0.59 | 0.939 | 0.916 | 0.957 | 0.606 | 0.637 | 0.62 | 0.421 | 0.499 | 0.484 | 0.575 | 0.98 | 1.02 | 1.04 | 0.534 | 0.822
15 | NCI-H1651 | 0.878 | 0.791 | 0.864 | 0.99 | 0.781 | 0.992 | 0.884 | 1.06 | 0.874 | 0.871 | 0.649 |  | 0.581 | 0.659 | 0.799 | 0.999 | 0.976 | 1.07 | 0.74 | 0.737
